{"source": "PubChem BioAssay (NCI)", "experiment_in_all_cases": "NCI tumour cell line growth inhibition, 48 h", "key": {"P388/ADR leukemia": {"tested_on": "P388/ADR leukemia"}, "SN12K1 renal": {"tested_on": "SN12K1 renal"}, "KM20L2 colon": {"tested_on": "KM20L2 colon"}, "P388 leukemia": {"tested_on": "P388 leukemia"}, "HOP-18 NSCLC": {"tested_on": "HOP-18 NSCLC"}, "DLD-1 colon": {"tested_on": "DLD-1 colon"}, "SNB-78 CNS": {"tested_on": "SNB-78 CNS"}, "DMS 273 small cell lung": {"tested_on": "DMS 273 small cell lung"}, "XF 498 CNS": {"tested_on": "XF 498 CNS"}, "RXF-631 renal": {"tested_on": "RXF-631 renal"}}, "note": "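Test compounds were applied to cells in 96-well plates for 48 hours at 5 doses. The concentration for 50% growth inhibition is given as GI50. TGI: concentration producing complete growth inhibition.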", "data": [{"smiles": "CS(=O)(=O)[O-].CS(=O)(=O)[O-].NC1CCCCC1N.[Pt+4]", "note": "(configuration not stated)", "values": [{"measurement": "GI50", "setting": "P388/ADR leukemia", "result": 43, "unit": "µM"}, {"measurement": "TGI", "setting": "P388/ADR leukemia", "result": "> 100", "unit": "µM"}, {"measurement": "GI50", "setting": "SN12K1 renal", "result": "> 100", "unit": "µM"}, {"measurement": "TGI", "setting": "SN12K1 renal", "result": "> 100", "unit": "µM"}, {"measurement": "GI50", "setting": "KM20L2 colon", "result": "> 51.3", "unit": "µM"}, {"measurement": "TGI", "setting": "KM20L2 colon", "result": "> 100", "unit": "µM"}, {"measurement": "GI50", "setting": "P388 leukemia", "result": 4.81, "unit": "µM"}, {"measurement": "TGI", "setting": "P388 leukemia", "result": "> 55.7", "unit": "µM"}, {"measurement": "GI50", "setting": "HOP-18 NSCLC", "result": "> 100", "unit": "µM"}, {"measurement": "TGI", "setting": "HOP-18 NSCLC", "result": "> 100", "unit": "µM"}, {"measurement": "GI50", "setting": "DLD-1 colon", "result": "> 100", "unit": "µM"}, {"measurement": "TGI", "setting": "DLD-1 colon", "result": "> 100", "unit": "µM"}, {"measurement": "GI50", "setting": "SNB-78 CNS", "result": "> 100", "unit": "µM"}, {"measurement": "TGI", "setting": "SNB-78 CNS", "result": "> 100", "unit": "µM"}]}, {"smiles": "Cc1nc2c(n1-c1ccccc1)C(=O)c1ccccc1C2=O", "values": [{"measurement": "TGI", "setting": "DMS 273 small cell lung", "result": "> 100", "unit": "µM"}, {"measurement": "TGI", "setting": "DLD-1 colon", "result": "> 100", "unit": "µM"}, {"measurement": "TGI", "setting": "SNB-78 CNS", "result": "> 100", "unit": "µM"}]}, {"smiles": "C[C@]12CCC(=O)C=C1CC[C@@H]1[C@@H]2[C@@H](O)C[C@@]2(C)[C@H]1CC[C@]2(O)C(=O)COC(=O)CCC1CCCC1", "values": [{"measurement": "TGI", "setting": "KM20L2 colon", "result": "> 100", "unit": "µM"}, {"measurement": "TGI", "setting": "DMS 273 small cell lung", "result": "> 100", "unit": "µM"}, {"measurement": "TGI", "setting": "XF 498 CNS", "result": "> 100", "unit": "µM"}, {"measurement": "TGI", "setting": "DLD-1 colon", "result": "> 100", "unit": "µM"}, {"measurement": "TGI", "setting": "SNB-78 CNS", "result": "> 100", "unit": "µM"}]}, {"smiles": "O=c1c(O)cccn1C1OC(CO)C(O)C1O", "note": "(configuration not stated)", "values": [{"measurement": "TGI", "setting": "KM20L2 colon", "result": "> 100", "unit": "µM"}, {"measurement": "TGI", "setting": "DMS 273 small cell lung", "result": "> 100", "unit": "µM"}, {"measurement": "TGI", "setting": "RXF-631 renal", "result": "> 100", "unit": "µM"}, {"measurement": "TGI", "setting": "HOP-18 NSCLC", "result": "> 100", "unit": "µM"}, {"measurement": "TGI", "setting": "DLD-1 colon", "result": "> 100", "unit": "µM"}, {"measurement": "TGI", "setting": "SNB-78 CNS", "result": "> 100", "unit": "µM"}]}, {"smiles": "O=C1C(Cl)=C(c2ccc([N+](=O)[O-])cc2)C(=O)c2c(O)cccc21", "values": [{"measurement": "TGI", "setting": "DMS 273 small cell lung", "result": "> 100", "unit": "µM"}, {"measurement": "TGI", "setting": "XF 498 CNS", "result": 1.95, "unit": "µM"}, {"measurement": "TGI", "setting": "HOP-18 NSCLC", "result": 2.04, "unit": "µM"}, {"measurement": "TGI", "setting": "DLD-1 colon", "result": 2.55, "unit": "µM"}]}]}
